Reference: patent US11026944B2, “Compositions and methods for treating insomnia” (Eisai R&D Management Co., Ltd., priority 2014, dated 2021)

Columns and labels:
[1] = test system: subjects with primary insomnia; test: 001 Study Part B: polysomnography (LPS, WASO, SE); assay type: in vivo, human; conditions: zolpidem 10 mg single evening dose
From the text: For Part B, 58 otherwise healthy subjects with primary insomnia were randomized across three cohorts, and stratified by gender. Part B also included an active control (zolpidem) and matching placebo. In each cohort, there were approximately 12 subjects in the compound A/zolpidem-matched placebo group, approximately four subjects in the zolpidem/compound A-matched placebo group, and approximately four subjects in the compound A-matched placebo/zolpidem-matched placebo group. Part B dosing occurred in the evening, 30 minutes prior to the sleep period. The starting dose for Part B was 3 dose levels that determined to be safe and well tolerated in Part A. Subsequent dose levels in Part B were determined based on the PD results of the first cohort in Part B and PD and safety results from at least 3 completed higher dose cohorts in Part A. Each cohort in Part B was divided into at least two groups, with dosing of each group staggered by a minimum of 2 days.
(§1) After the initial Screening visit, eligible subjects were scheduled to return to the clinic for 2 days during the Screening Period to conduct screening/baseline PSGs. These two days occurred at least 3 days after the initial Screening visit and within a window from Day-7 to Day-6 (±2 days). The first PSG was used to screen for sleep apnea and periodic limb movements in sleep (PLMS) and serve as the first baseline PSG. The second PSG was used as the second baseline PSG. Specific PSG variables were used to determine whether subjects met PSG inclusion criteria, and the average of PSG variables from these two PSGs was used as Baseline for this PD measure. Subjects who had met PSG inclusion criteria returned to the clinic on Day-1 for additional baseline procedures and randomization. Subjects were not allowed to nap on Day 1. On the evening of Day 1, after fasting a minimum of 3 hours, study drug was administered 30 minutes prior to the subject's habitual bedtime (lights-out), as calculated from the sleep diary for the first PSG during the Screening Period. PK blood samples were collected at prespecified timepoints, and PD assessments were performed. PSG was recorded on Day 1, postdose. Subjects were administered additional PD assessments each morning on Day 1 through Day 6. These assessments included the KSS, DSST, and PVT, in order to assess daytime sleepiness, level of alertness, and ability to concentrate. The KSS and DSST were also administered 5 minutes predose and 25 minutes postdose on Day 1, just prior to lights-out. Waketime Questionnaires were administered after the PD assessments within 15 minutes of lights-on, on Day 1 to Day 6. Time and duration of naps was recorded on Day 2.
In addition, PSG was performed during the Screening Period at Days-7 and -6 (±2 days), and postdose on Day 1. An 8-hour diagnostic PSG consisting of electroencephalogram (EEG), electrooculogram (EOG), electromyogram (EMG), ECGs, leg electrodes, and measures of respiratory function (airflow, respiratory effort, and oxygen saturation) were performed starting at the subject's habitual bedtime as determined from the sleep diary for the 3 nights immediately prior to the first PSG on Day-7 (±2 days). PSG variables from this night were used to screen for sleep apnea and PLMS. On Day-6 (±2) and postdose on Day1, standard PSGs (i.e., not including leg electrodes or measures of respiratory function other than oxygen saturation) were performed. Specified PSG variables from these two PSGs conducted during the Screening Period were used to determine whether subjects met PSG inclusion criteria. The average of PSG variables from these two PSGs conducted during the Screening Period were used as baseline PSG values. The key PD parameters such as PSG LPS, TST, SE, and WASO have been obtained from all PSG recordings.

[2] = test system: subjects with primary insomnia; test: 001 Study Part B: next day KSS, DSST, PVT; assay type: in vivo, human; conditions: any dose of compound A (2.5, 10, 25 mg); zolpidem 10 mg
From the text: as §1
Part B subjects were administered the KSS, DSST, and PVT within 15 minutes after lights-on specifically in that order, on each morning from Day 1 through Day 6, followed by the Waketime Questionnaire. The KSS and DSST were also administered 5 minutes predose and 25 minutes postdose on Day 1 (just prior to lights-out).

Cc1ccc(-c2nc3ccc(C)cn3c2CC(=O)N(C)C)cc1 [zolpidem, reference compound]
change from Baseline in SE [1]: 13% | next day effects on KSS, DSST, or PVT [2]: no clinically significant next day effects
